{"source": "paper PMC4815068", "about": "“A phase I study of high-dose rosuvastatin with standard dose erlotinib in patients with advanced solid malignancies” (Journal of Translational Medicine, 2016)", "key": {"[1]": {"assay": "On-study laboratory evaluations (CPK, cholesterol, LDL, HDL)", "format": "in vivo, human", "procedure": "Patients had weekly laboratory evaluations for hematogical, hepatic and renal functions and biochemical changes including creatine and creatine phosphokinase (CPK) and fasting total cholesterol, HDL and LDL during cycle 1 and at the start of each subsequent cycle. Physical examinations occurred at the start of each cycle and radiological tumor evaluations were completed after every 2 cycles. Tumor response was assessed using response evaluation criteria in solid tumors (RECIST) criteria."}, "[2]": {"test_system": "patients with advanced solid tumours", "method": "This was a single-center, phase I open-label study to determine the safety and RPTD of rosuvastatin in combination with the standard clinical dose of erlotinib (150 mg/day) in patients with advanced solid tumours. […] Eight cohorts from 1 to 8 mg/kg/day rosuvastatin given concurrently with standard dose erlotinb in 28-day cycles were planned. […] Patients received therapy until evidence of disease progression, the development of serious or unmanageable adverse events (SAE), or until study withdrawal. Clinically or radiological documented disease and an ECOG performance status of 0, 1 or 2 was also required. All study patients had adequate hematogical, hepatic and renal functions at baseline. Adequate hematological function was defined as hemoglobin ≥90 g/L, absolute granulocyte count ≥1.5 × 10^9/L and platelet counts ≥100 × 10^9/L. Biochemical parameters for hepatic function included; total bilirubin <1.5× the upper limit of normal (ULN) and ALT/AST <1.5× ULN. […] Any anticholesterol agents were discontinued at least 7 days prior to starting the trial.\nErlotinib was provided by Roche Canada and was administered orally in tablet form at a standard daily dose of 150 mg. […] The starting dose of rosuvastatin was 1 mg/kg/day with the dose of rosuvastatin increasing in a step-wise manner in escalating doses of 1 mg/kg/day. […] During cycle-1 of the dose escalation, treatment with rosuvastin was administered as follows: 1 week off, then daily for 2 weeks, then 1 week off. […] Doses were rounded to the nearest 5 mg since rosuvastatin is available in 5, 10, 20 and 40 mg tablets (purchased from AstraZeneca, Canada). Oral administration of rosuvastatin was once daily if daily dose was <80 mg, twice if 81–160 mg, three times a day if 161–240 mg and four times a day if >240 mg daily dose. […] No prophylactic medications were supplied. Standard supportive care medications were allowed. Oral supplementation of ubiquinone at 60 mg po QID was initiated if patient developed grade 3 or 4 muscle toxicity and continued until recovery to baseline.\nA 3 + 3 dose escalation phase I study design was used, with 3 patients planned at each cohort. […] All 3 patients at a given dose level needed to complete the first cycle of treatment without suffering DLT before new patients were enrolled at the next dose level. The lead patient at each new dose level completed the first cycle of treatment before other patients were enrolled at the same dose level. If 1/3 initial patients at each dose experienced a DLT, then the treatment level was expanded to at least 6 patients. […] There was no dose escalations allowed within individual patients. If >2 patients at any dose level experienced DLT, then that level was considered to have exceeded the maximal tolerated dose (MTD), and the level immediately preceding that level was designated as MTD and RPTD."}, "advanced solid tumours": {"test_system": "advanced solid tumours", "assay": "Tumor response (RECIST) and days on study", "format": "in vivo, human", "procedure": "Physical examinations occurred at the start of each cycle and radiological tumor evaluations were completed after every 2 cycles. Tumor response was assessed using response evaluation criteria in solid tumors (RECIST) criteria. […] In these cases, the patient went off protocol treatment. […] Similar strategies were employed for other toxicities as well. […] This study was conducted according to Good Clinical Practice."}, "CYP3A4": {"test_system": "CYP3A4", "conditions": "cited from earlier work"}, "NSCLC patients": {"test_system": "NSCLC patients", "set-up": "method as in PMID 21411446", "conditions": "hypercholesterolemia dose of simvastatin daily with standard dose gefitinib, SCC patients; cited from earlier work"}, "[3]": {"test_system": "patients with solid tumors", "conditions": "weekly regimen, lovastatin monotherapy; cited from earlier work"}, "recurrent SCC patients": {"test_system": "recurrent SCC patients", "conditions": "cited from earlier work"}, "[4]": {"assay": "Pharmacokinetic analysis of serum levels by LC/MS/MS", "procedure": "Pharmacokinetic analysis of erlotinib serum levels was undertaken at day 6 (erlotinib alone) and at day 14 (erlotinib and 1 mg/kg/day rosuvastatin treatments) and rosuvastatin at the day 14 timepoint of cycle 1 in 6 study patients (Schedule A). On day 6 and 14 serum erlotinib levels and day 14 serum rosuvastatin levels were determined at 2 h intervals for a full 24 h after drug treatments. The analysis of rosuvastatin and erlotinib was performed by a validated liquid chromatography mass spectrometry/mass spectrometry (LC/MS/MS) method. Protein precipitation (plasma: 50/50 acetonitrile/[…] 1:2) was used for sample preparation before injecting to HPLC for separation. Rosuvastatin, erlotinib and internal standard (IS), 6,7-Dimethyl-2,3-di(2-pyridyl)-quinoxaline (DMDPQ) was eluted by HPLC (Accela, Thermo) using a gradient mobile phase [0.2 % Formic acid (V:V), and 100 % methanol]. […] Detection was done by tandem Mass spectrometer (TSQ Quantum Access MAX, Thermo) with electrospray ionization in positive mode. The multiple reaction monitoring (MRM) was be used to detect specific precursor ion to product ion transitions for rosuvastatin (m/s 482.3/258.1), erlotinib (m/s 394.3/336.2), and IS (m/s 313.2/91.2), respectively. Xcalibur and TSQ Tune master software (Thermo) was used as the system controller and integrator."}, "[5]": {"conditions": "concurrent rosuvastatin + erlotinib"}}, "note": "Entries after “also recorded” stand apart in the source; their conditions may differ. Like-named read-outs stand apart in the source and are kept apart here. Marks after values point to notes of the source that are not given here.", "data": [{"smiles": "CC(C)c1nc(N(C)S(C)(=O)=O)nc(-c2ccc(F)cc2)c1/C=C/[C@@H](O)C[C@@H](O)CC(=O)O", "note": "[rosuvastatin]", "values": [{"measurement": "Patients with elevated CPK levels during rosuvastatin treatments", "setting": "[1]; 1 mg/kg/day dose + erlotinib", "value": "1 out of 16"}, {"measurement": "Patients with elevated CPK levels during rosuvastatin treatments", "setting": "[1]; 2 mg/kg/day dose (Cohort 2) + erlotinib", "value": "4 out of the 8"}, {"measurement": "Serum CPK level in the patient with rhabdomyolysis", "setting": "[1]; day 28 (erlotinib and rosuvastatin 2 mg/kg/day), increased from 60 U/L", "value": "over 2000 U/L"}, {"measurement": "Change in serum cholesterol, LDL or HDL levels", "setting": "[1]; rosuvastatin + erlotinib, even in patients on study greater than 170 days", "value": "did not result in significant changes"}, {"measurement": "Anorexia, ≥Grade 2", "setting": "[2]; human, in vivo", "value": 62.5, "unit": "%"}, {"measurement": "Anxiety, ≥Grade 2", "setting": "[2]; human, in vivo", "value": 4.2, "unit": "%"}, {"measurement": "Diarrhea, ≥Grade 2", "setting": "[2]; human, in vivo", "value": 20.8, "unit": "%"}, {"measurement": "Fatigue, ≥Grade 2", "setting": "[2]; human, in vivo", "value": 75.0, "unit": "%"}, {"measurement": "Muscle weakness, ≥Grade 2", "setting": "[2]; human, in vivo", "value": 41.7, "unit": "%"}, {"measurement": "Myalgia, ≥Grade 2", "setting": "[2]; human, in vivo", "value": 29.2, "unit": "%"}, {"measurement": "Nausia, ≥Grade 2", "setting": "[2]; human, in vivo", "value": 16.7, "unit": "%"}, {"measurement": "Rash, ≥Grade 2", "setting": "[2]; human, in vivo", "value": 29.2, "unit": "%"}, {"measurement": "Rhabdomyolysis, ≥Grade 2", "setting": "[2]; human, in vivo", "value": "4.2^a %"}, {"measurement": "Vomiting, ≥Grade 2", "setting": "[2]; human, in vivo", "value": 16.7, "unit": "%"}, {"measurement": "Weight loss, ≥Grade 2", "setting": "[2]; human, in vivo", "value": 16.7, "unit": "%"}, {"measurement": "Patients who developed rhabdomyolysis (study related death)", "setting": "[2]; rosuvastatin 2 mg/kg/day + erlotinib, 8 evaluable patients", "value": "single patient out of 8"}, {"measurement": "Patients with durable stable disease, NSCLC", "setting": "advanced solid tumours; [5]", "value": "2/4"}, {"measurement": "Patients with durable stable disease, genitourinary (GU) cancer (vaginal squamous epithelial carcinoma)", "setting": "advanced solid tumours; [5]", "value": "1/4"}, {"measurement": "Patients with durable stable disease, pancreatic cancer (neuroendocrine tumour)", "setting": "advanced solid tumours; [5]", "value": "1/2"}, {"measurement": "Evaluable patients on study for greater than 170 days", "setting": "advanced solid tumours; concurrent rosuvastatin + erlotinib (Cohorts 1, 2 and Schedule A)", "value": "4/16"}, {"measurement": "Patients on study for greater than 275 days", "setting": "advanced solid tumours; concurrent rosuvastatin + erlotinib, 16 evaluable", "value": 3, "unit": "patients"}, {"measurement": "Durable stable disease for more than 170 days (rate)", "setting": "advanced solid tumours; concurrent rosuvastatin + erlotinib, evaluable for response n = 16", "value": 25, "unit": "%"}, {"measurement": "Patients with disease stabilization greater than 6 months", "setting": "advanced solid tumours; concurrent treatment regimens, rosuvastatin + erlotinib", "value": "4/16"}, {"measurement": "Objective responses (RECIST)", "setting": "advanced solid tumours; rosuvastatin + erlotinib, 22 evaluable patients", "value": "No objective responses; also recorded: absence of objective responses"}, {"measurement": "CYP3A4 substrate", "setting": "CYP3A4; ref 32", "value": "non-CYP3A4 substrate"}, {"measurement": "CYP3A4 substrate", "setting": "CYP3A4; ref 33", "value": "not a CYP3A4 substrate"}]}, {"smiles": "CCC(C)(C)C(=O)O[C@H]1C[C@@H](C)C=C2C=C[C@H](C)[C@H](CC[C@@H]3C[C@@H](O)CC(=O)O3)[C@H]21", "note": "[simvastatin]", "values": [{"measurement": "Response rates and PFS compared to gefitinib alone", "setting": "NSCLC patients", "value": "higher response rates and longer PFS"}]}, {"smiles": "CC[C@H](C)C(=O)O[C@H]1C[C@@H](C)C=C2C=C[C@H](C)[C@H](CC[C@@H]3C[C@@H](O)CC(=O)O3)[C@H]21", "note": "[lovastatin]", "values": [{"measurement": "Clinical efficacy as an anticancer therapy", "setting": "[3]", "value": "failed to demonstrate clinical efficacy"}, {"measurement": "DLT of lovastatin", "setting": "recurrent SCC patients; prolonged oral administration, recurrent SCC", "value": "reversible muscle toxicity"}, {"measurement": "Patients with disease stabilization lasting greater than 3 months", "setting": "recurrent SCC patients; single agent lovastatin, SCC patients", "value": 23, "unit": "%"}, {"measurement": "Dose-limiting muscle toxicities greater than grade 2 in severity", "setting": "recurrent SCC patients; single agent lovastatin, of the 5 patients with muscle DLT", "value": 2}, {"measurement": "Patients with reversible dose-limiting muscle toxicities", "setting": "recurrent SCC patients; single agent lovastatin, of the 24 patients enrolled", "value": 5, "unit": "patients"}]}, {"smiles": "C#Cc1cccc(Nc2ncnc3cc(OCCOC)c(OCCOC)cc23)c1", "note": "[erlotinib]", "values": [{"measurement": "Tmax", "setting": "[4]; erlotinib (+rosuvastatin 1 mg/kg/day) (day 14), individual Schedule A patients 14-18", "value": 6, "unit": "h"}, {"measurement": "Tmax", "setting": "[4]; erlotinib alone (day 6), 150 mg/day, individual Schedule A patients 13-18", "value": 6, "unit": "h"}, {"measurement": "Half-life of erlotinib on addition of rosuvastatin", "setting": "[4]; human, in vivo", "value": "unaffected"}, {"measurement": "half-life", "setting": "[4]; human, in vivo, 150 mg/day", "value": 18.1, "unit": "h"}, {"measurement": "half-life", "setting": "[4]; human, in vivo, 150 mg/day, t 1/2, erlotinib alone (day 6), 150 mg/day, individual Schedule A patients 13-18", "value": 25.7, "unit": "h"}, {"measurement": "half-life", "setting": "[4]; human, in vivo, t1/2", "value": 24.3, "unit": "h"}, {"measurement": "Erlotinib AUC, day 6 (alone) versus day 14 (+rosuvastatin)", "setting": "[4]; in vivo", "value": "did not differ significantly"}, {"measurement": "Erlotinib Cmax and Tmax, day 6 versus day 14 (+rosuvastatin)", "setting": "[4]; in vivo", "value": "similar"}, {"measurement": "Plasma erlotinib levels on addition of rosuvastatin", "setting": "[4]; in vivo", "value": "unaffected"}]}]}
